Laboratory results reported in patent publication US10087233B2, “Coagulation factor VIII with reduced immunogenicity” (IMNATE SARL, priority 2012, dated 2018).
One block for each compound: values may come before it.

Assays:
human iNKT cells = experiment: Cell cluster formation of human iNKT cells with peptide-loaded U937 cells; format: cell-based; settings: iNKT cells with loaded U937 cells 1:1, 2 weeks, IL-2; FIG. 5
Protocol: In order to establish whether human PBMC contained cells reacting with a CD1d-binding peptide epitope, invariant NKT (iNKT) cells were prepared from a buffy coat using magnetic beads coated with an antibody specific to the Valpha24-Jalpha18 chain of the T cell receptor (so-called invariant chain).
Said human iNKT cells (10^5/condition) were then incubated with mitomycine-C treated U937 cells (Ratio 1:1) loaded with 5 μg of either peptide encompassing aminoacid residues 188-204 of human factor VIII (SEQ ID NO: 5) or with control peptide (MHCII-MOG). Incubation was carried out for 2 weeks at 37° C. in RPMI containing 10% of fetal calf serum and 50 U/ml of human recombinant IL-2.
Culture plates were examined by eye for the presence of cell clusters. […] FIG. 5 illustrates the average of three microscopic field count of this observation (minimum 10 cells/cluster).

CD1d tetramers = biological target: T1, CD1d tetramers (Mus musculus, UniProt P11609); experiment: CD1d tetramers loaded with peptide, detection of NKT cells among CD4+ spleen cells; format: binding; settings: CD4+ spleen cells of naïve mice; FIG. 1
T1 construct: purchased ProImmune
T1 sequence (P11609 22-305 limits assumed): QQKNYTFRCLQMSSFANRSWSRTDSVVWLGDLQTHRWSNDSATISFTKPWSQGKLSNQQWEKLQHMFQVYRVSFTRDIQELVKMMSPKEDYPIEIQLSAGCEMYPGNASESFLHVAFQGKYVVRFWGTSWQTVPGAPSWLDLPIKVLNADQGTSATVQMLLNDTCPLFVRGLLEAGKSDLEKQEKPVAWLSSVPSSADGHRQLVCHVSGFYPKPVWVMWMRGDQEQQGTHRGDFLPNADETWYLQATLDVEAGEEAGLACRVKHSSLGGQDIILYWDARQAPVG
T1 sequence (P01887 21-119 partner): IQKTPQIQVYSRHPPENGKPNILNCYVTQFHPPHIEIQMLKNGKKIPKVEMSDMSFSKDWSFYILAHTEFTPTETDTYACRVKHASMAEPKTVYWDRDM
Protocol: A peptide encompassing SEQ ID NO: 1 was obtained by chemical synthesis. This peptide was used to load CD1d tetramers (ProImmune) by overnight incubation.
NKT cells were prepared from the spleen of naïve mice by depletion of all CD4(−) cells using magnetic beads.
CD4+ cells were then incubated with CD1d tetramers loaded by peptide of SEQ ID NO: 1 (P28 WT in FIG. 1), which corresponds to aminoacid sequence 190 to 209.

NKT cells [1] = experiment: Immunization with JAWS2 cells loaded with peptide, tetramer detection of NKT cells in spleen; format: in vivo, factor VIII KO mice; settings: tetramers loaded with peptide, FIG. 2
Protocol: JAWS2 cells express CD1d but not MHC class II determinants.
JAWS2 cells were incubated 2 h at 37° C. with peptide of SEQ ID NO: 1 (10 μg/ml) and thoroughly washed twice. Cells were then treated with mitomycin to block cell division and washed 4 times to eliminate mitomycin. A cell suspension containing 2×10^6 cells in physiological serum was injected by the intraperitoneal route in each of a series of 3 naïve factor VIII KO mice. As a control, 3 naïve factor VIII KO mice received the same number of JAWS2 cells which had not been incubated with peptide of SEQ ID NO: 1.
Five days after IP injection, the mice were sacrificed and their spleen prepared as above using magnetic beads to eliminate all CD4(−) cells.
CD4+ cells were then incubated with tetramers loaded with peptide of SEQ ID NO: 1.

NKT cells [2] = experiment: Immunization with loaded JAWS2 cells, CD4+/CD8+ lineage of DX5/CD160 cells binding CD1d tetramers; format: in vivo, factor VIII KO mice
Protocol: To determine the cell lineage to which NKT cells belonged, an experiment was performed as described in Example 2. Thus, JAWS2 cells were loaded with either peptide of SEQ ID NO: 3, B-domain-deleted factor VIII, alpha-gal-ceramide or kept unloaded before intraperitoneal (IP) injection in factor VIII KO mice (2×10^6 cells per mouse). Five days after intraperitoneal injections, the mice were sacrificed and the splenocytes prepared. Cell suspensions were then reacted with CD1d tetramers unloaded or loaded with peptide of SEQ ID NO: 3 or with alpha-gal-ceramide.
For faccs analysis, cells binding CD1d tetramers were labeled with DX5- and CD160-specific antibodies and either anti-CD4 or anti-CD8 antibodies. The table summarizes the results.

U937 cells = experiment: CD1d surface expression on U937 cells incubated with peptide (FACS); format: cell-based, human; settings: as example 4; FIG. 6
Protocol: To determine whether human antigen-presenting cells had the capacity to process and present a peptide epitope in the context of the CD1d molecule, the human macrophage cell line U937 was used.
The percentage of resting U937 cells expressing CD1d is low as detected with a specific anti-CD1d antibody. It was reasoned that, if U937 cells were incubated with a peptide having the sequence motif enabling it to bind to CD1d, then this should be detectable by increased expression of CD1d at cell surface. As observed for peptides encompassing MHC class II epitopes, the binding of a peptide stabilizes the conformation of the molecule (class II, or CD1d in the present case), allowing the complex to be anchored at cell surface and reducing its intracellular recycling.
U937 cells (7×10^5 cells) were incubated for 24h at 37° C. with 5 μg of peptide encompassing CD1d binding motifs or controls. The cells were then washed and incubated with fluorescence-labeled antibodies specific to CD1d and the number of positive cells evaluated using a FACS system.
Controls include (from left to right) unloaded U937, cells incubated with alpha-gal-ceramide and a conventional class II-restricted epitope (MHCII-MOG). The experiment includes sequences of factor VIII of either human (SEQ ID NO: 5) or mouse (SEQ ID NO: 6) origin corresponding to aminoacids 188-204 of the factor VIII sequence. […]

[3] = mice given JAWS2 loaded with the labelled substance, tetramers loaded with Alpha-gal-cer
[4] = mice given JAWS2 loaded with the labelled substance, tetramers loaded with Peptide SEQ ID NO: 3
[5] = mice given JAWS2 loaded with the labelled substance, unloaded tetramers
[6] = mice given unloaded JAWS2 (natural repertoire), tetramers loaded with the labelled substance

CD1d binding motif / NKT cells detected by peptide-loaded tetramers (in words) (CD1d tetramers): limited though significant
Compound: AVFDEGKSWHS (homo sapiens) [SEQ ID NO: 4, human factor VIII 200-210]

% of CD4+ T cells detected by CD1d tetramers loaded with peptide (CD1d tetramers): ~1%
Compound: QTLHKFILLFAVFDEGKSWH (listed as Homo sapiens) [SEQ ID NO: 1, human factor VIII 190-209]
proportion of NKT cells specific for peptide when peptide is presented by JAWS2 cells (NKT cells [1]; 5 days after IP injection of 2×10^6 peptide-loaded JAWS2 cells): 16% | proportion of NKT cells specific for peptide, natural repertoire (NKT cells [1]; control mice given JAWS2 cells not incubated with peptide): 8%

CD1d binding motif / NKT cells detected by peptide-loaded tetramers (in words) (CD1d tetramers): major CD1d binding motif
Compound: QTLHKFILLFA (homo sapiens) [SEQ ID NO: 3, human factor VIII 190-200]
Number of DX5/CD160 cells, CD4+ (NKT cells [2]; [3]): 2.2 ×10^3 | Number of DX5/CD160 cells, CD8+ (NKT cells [2]; [3]): 0.8 ×10^3 | Number of DX5/CD160 cells, CD4+ (NKT cells [2]; [4]): 47 ×10^3 | Number of DX5/CD160 cells, CD8+ (NKT cells [2]; [4]): 4.1 ×10^3 | Number of DX5/CD160 cells, CD4+ (NKT cells [2]; [5]): 0.2 ×10^3 | Number of DX5/CD160 cells, CD8+ (NKT cells [2]; [5]): 0.1 ×10^3 | Number of DX5/CD160 cells, CD4+ (NKT cells [2]; [6]): 39 ×10^3 | Number of DX5/CD160 cells, CD8+ (NKT cells [2]; [6]): 3.5 ×10^3 | expression of CD1d at the surface of U937 cells (in words) (U937 cells): did not increase

Continued, compound first:

Compound: KTQTLHKFILLFAVFDE (listed as Homo sapiens) [SEQ ID NO: 5, human factor VIII 188-204]
presence of cell clusters (clumps of cells) (human iNKT cells): clumps of cells form

Compound: CCCCCCCCCCCCCCCCCCCCCCCCCC(=O)N[C@@H](CO[C@H]1O[C@H](CO)[C@H](O)[C@H](O)[C@H]1O)[C@H](O)[C@H](O)CCCCCCCCCCCCCC [Alpha-gal-cer, alpha-gal-ceramide, reference compound]
Number of DX5/CD160 cells, CD4+ (NKT cells [2]; [3]): 2.3 ×10^3 | Number of DX5/CD160 cells, CD8+ (NKT cells [2]; [3]): 1.8 ×10^3 | Number of DX5/CD160 cells, CD4+ (NKT cells [2]; [4]): 46 ×10^3 | Number of DX5/CD160 cells, CD8+ (NKT cells [2]; [4]): 1.9 ×10^3 | Number of DX5/CD160 cells, CD4+ (NKT cells [2]; [5]): 0.1 ×10^3 | Number of DX5/CD160 cells, CD8+ (NKT cells [2]; [5]): 0 ×10^3 | Number of DX5/CD160 cells, CD4+ (NKT cells [2]; [6]): 1.2 ×10^3 | Number of DX5/CD160 cells, CD8+ (NKT cells [2]; [6]): 1.3 ×10^3 | presence of cell clusters (clumps of cells) (human iNKT cells): to the same extent
